Test results from publication PMC3413639 (PLoS ONE, 2012).
“And” between values parts separate entries of the source, which are not always exact repeats. Equal entries are not always repeated. Where two headings read alike, the source gives them in different places.

Assays:
[1] = Brain-to-plasma ratio of Wf-516; format: in vivo; conditions: at the time of reaching maximal plasma concentration, unpublished data
5-HT1A receptors [2] = biological target: T1, 5-HT1A receptors (Rattus norvegicus, UniProt P19327); parameters: method as in earlier work; conditions: rat hippocampal homogenates; read-out: Ki (in vitro estimate); cited from earlier work
T1 sequence (P19327 1-422): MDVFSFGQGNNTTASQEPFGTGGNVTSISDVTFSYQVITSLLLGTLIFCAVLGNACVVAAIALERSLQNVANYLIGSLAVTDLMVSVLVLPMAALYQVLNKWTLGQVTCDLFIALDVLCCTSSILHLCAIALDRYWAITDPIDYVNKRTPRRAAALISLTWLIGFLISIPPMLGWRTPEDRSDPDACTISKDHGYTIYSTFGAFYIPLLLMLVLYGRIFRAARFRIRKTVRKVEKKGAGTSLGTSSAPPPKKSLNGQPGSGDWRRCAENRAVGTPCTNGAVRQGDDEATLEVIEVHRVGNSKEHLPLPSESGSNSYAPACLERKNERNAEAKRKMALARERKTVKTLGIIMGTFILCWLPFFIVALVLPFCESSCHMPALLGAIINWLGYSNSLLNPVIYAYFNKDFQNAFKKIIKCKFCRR

5-HTTs = test system: 5-HTTs; parameters: method as in PMID 19236731; conditions: cited from earlier work
5-HT1A receptors [3] = biological target: T1, 5-HT1A receptors; assay: [11C]WAY-100635-PET of rats treated with 5,7-DHT, a toxicant for 5-HT neurons; conditions: 30 mg/kg oral
5-HT1A receptors [4] = biological target: T1, 5-HT1A receptors; assay: In vitro ARG, inhibition of [11C]WAY-100635 binding in rat brain sections; parameters: Twenty-micrometer-thick frozen brain sections were preincubated; from tissue; host or cells: rat brain (hippocampus and raphe nucleus): frozen sections or living animals; conditions: for Ki: 0.9 nM [11C]WAY-100635
Method: Rats were sacrificed by decapitation. Twenty-micrometer-thick frozen brain sections were preincubated for 30 min in 50 mM Tris-HCl (pH 7.4) containing 1 mM MnCl2. […] Subsequently, the sections were rinsed twice with ice-cold Tris-HCl buffer for 5 min and then desalted with ice-cold distilled water for 10 sec. These samples were warmly blow-dried and placed in contact with an imaging plate (Fuji Film, Tokyo, Japan) for 60 min. Signals on the imaging plate were detected by BAS5000 system (Fuji Film).

5-HT1A receptors [5] = biological target: T1, 5-HT1A receptors; assay: [11C]WAY-100635-PET, BPND and 5-HT1A receptor occupancy; format: in vivo; parameters: Twenty-micrometer-thick frozen brain sections were preincubated; from tissue; host or cells: rat brain (hippocampus and raphe nucleus): frozen sections or living animals; conditions: for BPND Hippocampus / BPND Raphe: [11C]WAY-100635, about 5 h before scan, mean ± S.E.; for receptor occupancy at 1 mg/kg / receptor occupancy at 3 mg/kg / receptor occupancy at 10 mg/kg / receptor occupancy at 30 mg/kg / receptor occupancy at 100 mg/kg: rat
Method: All PET scans were carried out using a microPET Focus 220 scanner (Siemens Medical Solutions USA, Knoxville, TN). The rats were anesthetized with 1.5–2% isoflurane in air (2 L/min flow rate). […] All list-mode data were stored into 3D sinograms, which were then Fourier-rebinned into 2D sinograms (26 frames: 4×1, 8×2, and 14×5 min). Images were reconstructed using 2D-filtered back-projection with a 0.5-mm Hanning filter. All PET images were manually coregistered to the MRI template by spatial translation and rotation of original PET images without geometric expansion and contraction. ROIs were placed on the hippocampus and raphe nucleus using PMOD® image analysis software (PMOD Group, Zurich, Switzerland) with reference to the MRI template. Fine-tuning of the location of ROIs was then performed based on PET images at an early phase (0–30 min) of the scan in order to compensate for small mismatches between coregistered PET and MR images. The cerebellum was used as reference tissue because of its negligible density of 5-HT1A receptors.

5-HT1A receptors [6] = biological target: T1, 5-HT1A receptors; assay: Autoradiographic [35S]GTPγS binding in rat brain sections; format: biochemical; parameters: Twenty-micrometer-thick frozen brain sections were preincubated; from tissue; host or cells: rat brain (hippocampus and raphe nucleus): frozen sections or living animals; conditions: raphe nucleus; 10 µM; p<0.01; increment smaller than that by 8-OH-DPAT
Method: Autoradiographic procedures were performed as described previously, with some modifications. The sections were preincubated for 15 min in 50 mM 4-(2-hydroxyethyl)-1-piperazineethanesulfonic acid (HEPES; pH 7.4) containing 10 mM NaCl, 3 mM MgCl2 and 0.2 mM ethylene glycol tetraacetic acid. A second preincubation using the same buffer containing 2 mM GDP was performed for 15 min. The sections were subsequently incubated in the same buffer containing 2 mM GDP, 0.2 mM dithiothreitol and 0.04 nM [^35S]GTPγS for 120 min. Basal [^35S]GTPγS binding was defined in the absence of test drugs. […] Nonspecific binding was estimated using 10 µM nonradioactive GTPγS. The incubation was terminated by ice-cold 50 mM HEPES (pH 7.0). The sections were desalted with ice-cold distilled water, dried, and placed in contact with an imaging plate for 2 days. Signal detection and image analysis were performed as described above.

5-HT1A receptors [7] = biological target: T1, 5-HT1A receptors; assay: [18F]MPPF PET, BPND and 5-HT1A receptor occupancy; format: in vivo; parameters: Rats were sacrificed by decapitation; Twenty-micrometer-thick frozen brain sections were preincubated; from tissue; host or cells: rat brain (hippocampus and raphe nucleus): frozen sections or living animals; conditions: mean ± S.E.; for receptor occupancy at 30 mg/kg: rat
[8] = po, read-out: Occupancy (%) Hippocampus
[9] = po, read-out: Occupancy (%) Raphe

Cc1nnc(-c2cc3c(OC[C@@H](O)CN4CCC(c5ccc(Cl)c(Cl)c5)CC4)cccc3o2)o1.Cl [Wf-516, (2S)-1-[4-(3,4-dichlorophenyl)piperidin-1-yl]-3-[2-(5-methyl-1,3,4-oxadiazol-2-yl)benzo[b]furan-4-yloxy]propan-2-ol monohydrochloride]
Kp [1]: ~2 | Ki (5-HT1A receptors [2]): 7.4 nM | ED50 for blockade of 5-HTTs (5-HTTs; previous PET study): 3 mg/kg | Occupancy of 5-HTT among regions (5-HTTs; previous observation): homogenous among regions | Change of BPND in 5,7-DHT-treated rats (5-HT1A receptors [3]; hippocampus, compared with baseline): significant decrease of BPND | Change of BPND in 5,7-DHT-treated rats (5-HT1A receptors [3]; raphe nucleus): no additional reduction of BPND | Blockage of 5-HT1A receptors by excess amounts of drug (5-HT1A receptors [4]; hippocampus and raphe nucleus, up to 1000 nM): near-complete blockage | Ki (5-HT1A receptors [4]; hippocampus): 8.1 nM | Ki (5-HT1A receptors [4]; raphe nucleus): 7.9 nM | BPND Hippocampus (5-HT1A receptors [5]; 1 mg/kg oral): 5.612±0.356 | BPND Raphe (5-HT1A receptors [5]; 1 mg/kg oral): 2.128±0.109 | BPND Hippocampus (5-HT1A receptors [5]; 3 mg/kg oral): 5.589±0.410 | BPND Raphe (5-HT1A receptors [5]; 3 mg/kg oral): 2.024±0.097 | BPND Hippocampus (5-HT1A receptors [5]; 10 mg/kg oral): 4.937±0.550 | BPND Raphe (5-HT1A receptors [5]; 10 mg/kg oral): 1.620±0.126 | BPND Hippocampus (5-HT1A receptors [5]; 30 mg/kg oral): 4.836±0.441 | BPND Raphe (5-HT1A receptors [5]; 30 mg/kg oral): 1.271±0.194 | BPND Hippocampus (5-HT1A receptors [5]; 100 mg/kg oral): 4.962±0.400 | BPND Raphe (5-HT1A receptors [5]; 100 mg/kg oral): 1.212±0.073 | Difference in maximal occupancy between hippocampus and raphe nucleus (5-HT1A receptors [5]; oral, PET regression curves): more than 2.5 fold | Maximal occupancy as calculated by the regression curve (5-HT1A receptors [5]; raphe nucleus, oral, PET): 53.8% and ~50% | receptor occupancy at 1 mg/kg (5-HT1A receptors [5]; [8]): 7 ± 2.7% | receptor occupancy at 3 mg/kg (5-HT1A receptors [5]; [8]): 6.8 ± 7.1% | receptor occupancy at 10 mg/kg (5-HT1A receptors [5]; [8]): 18.8 ± 6% | receptor occupancy at 30 mg/kg (5-HT1A receptors [5]; [8]): 20.3 ± 4.1% | receptor occupancy at 100 mg/kg (5-HT1A receptors [5]; [8]): 17.8 ± 4.9% | receptor occupancy at 1 mg/kg (5-HT1A receptors [5]; [9]): 8.5 ± 7.6% | receptor occupancy at 3 mg/kg (5-HT1A receptors [5]; [9]): 13.2 ± 6.1% | receptor occupancy at 10 mg/kg (5-HT1A receptors [5]; [9]): 30.6 ± 6.4% | receptor occupancy at 30 mg/kg (5-HT1A receptors [5]; [9]): 46.3 ± 6.9% | receptor occupancy at 100 mg/kg (5-HT1A receptors [5]; [9]): 48.2 ± 3.3% | receptor occupancy at 3 mg/kg (5-HT1A receptors [5]; 3 mg/kg oral, PET, read-out: Difference in occupancy between hippocampus and raphe nucleus): ~100% | [35S]GTPγS binding compared with 1 µM WAY-100635 (5-HT1A receptors [6]): significantly increased | BPND Hippocampus (5-HT1A receptors [7]; 30 mg/kg): 1.100±0.015 | BPND Raphe (5-HT1A receptors [7]; 30 mg/kg): 0.227±0.027 | receptor occupancy at 30 mg/kg (5-HT1A receptors [7]; read-out: Occupancy (%) Hippocampus): 23.3 ± 1.5% | receptor occupancy at 30 mg/kg (5-HT1A receptors [7]; read-out: Occupancy (%) Raphe): 45.7 ± 6.5%
